Experimental data from article PMC10086185, “Synthesis, radiolabeling, and evaluation of a (4-quinolinoyl)glycyl-2-cyanopyrrolidine analogue for fibroblast activation protein (FAP) PET imaging” (Frontiers in Bioengineering and Biotechnology, 2023).
Values joined by “and” are separate entries in the source; they are usually repeats but may differ in a detail not shown here. Equal entries are not always repeated.

How the values were obtained:
[1] = tested on: U87MG cells; test: Cellular uptake of [^18F]3 in U87MG cells; type: cell-based; details: U87 cells
Protocol: Briefly, all cells were divided into the following two groups: A: blocking group and B: vehicle group. All cells were cultured, grouped, and plated (approximately 2*10^6 cells per well) before use. Cells were treated with [^18F]3 (74 KBq) and incubated at 37°C under a 5% CO2 atmosphere. […] Incubated at 37°C for 1 h, the medium from each well was removed, and the cells were washed twice with 1 mL of PBS. The medium and the PBS from each well were combined and counted in a Gamma counter (PerkinElmer Wizard 2470) for radioactivity counts. The cells were then handled with 1 mL of 1 M NaOH, and the lysates were also counted in the Wizard 2470 gamma counter. The uptake ratios for each group were then calculated with this equation: %Dose = […](medium counts + PBS counts + cell lysate counts).

[2] = Micro-PET/CT imaging, organ SUV in tumor-bearing nude mice; type: in vivo, BALB/c nude mice
Protocol: BALB/c nude mice used in this study were obtained from the Animal Center of Sichuan University. Tumor-bearing mouse models were established by the subcutaneous injection of 100 µL of PBS suspension containing approximately 1*10^6 tumor cells to the body side of the subjects. The tumor volume was monitored every day, and the tumor-bearing mice were ready for imaging once the tumor volume reached 0.5 mm^3 (tumor volume can be calculated by this equation: Volume = 0.5 * long tail * short tail *short tail). Micro-PET/CT imaging studies were performed on the IRIS Micro-PET/CT system (Inviscan SAS, France). Tumor-bearing mice were injected with approximately 11.2–14.8 MBq of [^18F]3 (200 µL) via the tail vein under anaesthetization by isoflurane. Static PET images were obtained at designated time points and were reconstructed with a 3D-OSEM algorithm using a Monte Carlo-based accurate detector model. Then, 170 sec-CT acquisition was conducted with 50 kV, 1 mA X-ray output for attenuation correction and anatomical orientation. ROIs (regions of interest) were drawn on the lung, kidney, liver, and tumor by OsiriX software. SUV (standardized uptake value) of the ROIs was directly obtained from OsiriX for each subject according to this formula: SUV = Voxal value (Bq/mL) * Body weight (kg)/(Decay corrected Dose (Bq) * 1,000 (g/kg)).
BALB/c nude mice used in this study were obtained from the Animal Center of Sichuan university. Tumor-bearing mice model were established by the subcutaneous injection of 100 µL of PBS suspension containing approximately 1*10^6 tumor cells to the body side of the subjects. The tumor volume was monitored every day and the tumor-bearing mice were ready for imaging once the tumor volume reach 0.5 mm^3 (tumor volume can be calculated by this equation: Volume = 0.5 * long tail * short tail *short tail). Micro-PET/CT imaging studies were performed on the IRIS Micro-PET/CT system (Inviscan SAS, France). Tumor-bearing mice were injected with approximately 11.2-14.8 MBq of [^18F]3 (200 µL) via tail vein under anaesthetization by isoflurane. Static PET images were obtained at designated time points and were reconstructed with a 3D-OSEM algorithm using a Monte-Carlo based accurate detector model. A 170 sec-CT acquisition was conducted with 50 kV, 1 mA X-ray output for attenuation correction and anatomical orientation. ROIs (regions of interest) were drawn on lung, kidney, liver and tumor by Osirix software. SUV (standardized uptake value) of the ROIs was directly obtained from Osirix for each subject according to this formula: SUV = Voxal value (Bq/mL) * Body weight (kg)/(Decay corrected Dose (Bq) * 1000 (g/kg)).

[3] = Biodistribution in normal Kunming mice; type: in vivo; details: for Biodistribution, Intestine, single mice: individual animals; for Biodistribution, Blood / Biodistribution, Bone / Biodistribution, Brain / Biodistribution, Heart / Biodistribution, Intestine / Biodistribution, Kidney / Biodistribution, Lungs / Biodistribution, Muscle / Biodistribution, Spleen / Biodistribution, Stomach / Biodistribution, Liver: mean (SD), n = 5
Protocol: Normal Kunming mice (4 weeks, 20–25 g) were injected intravenously with about 740 KBq of [^18F]3 in 100 µL of PBS saline solution via the tail vein. All subjects were grouped by time points (n = 5). At designated time points, all subjects were sacrificed, and the organs and tissues were harvested, weighted, and counted in a PerkinElmer Wizard 2470 gamma counter. All the counts obtained from the gamma counter were decay-corrected and used to calculate the tissue biodistribution data, which is presented as the percentage of injected dose per gram of organ (%ID/g).

Compound: N#C[C@@H]1CC(F)(F)CN1C(=O)CNC(=O)c1ccnc2ccc([18F])cc12 [[^18F]3]
- Cellular uptake ratio, blocking group ([1]; 1 h, pre-treatment with compound 3, 10 µM): 1.19% ± 0.02%
- Cellular uptake ratio ([1]; 1 h incubation, vehicle group): 1.50% ± 0.13%
- SUV in the liver ([2]; 15 min p.i.): about 5.0
- SUV in the kidney ([2]; 90 min p.i.): 3.0
- SUV in the bladder ([2]; end of the scan): greater than 8.0
- SUV in the liver ([2]; end of the scan (90 min)): 2.0
- SUV in the kidney ([2]; initial): about 5.0
- SUV in the brain ([2]; mouse, in vivo): less than 0.3
- Biodistribution, Intestine, single mice ([3]; 5 min post-injection (time inferred from the means)): 10.34 %ID/g and 11.05 %ID/g and 10.3 %ID/g and 22.06 %ID/g and 16.22 %ID/g
- Biodistribution, Blood ([3]; 5 min post-injection): 12.96 ± 2.03 %ID/g
- Biodistribution, Bone ([3]; 5 min post-injection): 1.86 ± 0.54 %ID/g
- Biodistribution, Brain ([3]; 5 min post-injection): 0.80 ± 0.29 %ID/g
- Biodistribution, Heart ([3]; 5 min post-injection): 11.00 ± 1.64 %ID/g
- Biodistribution, Intestine ([3]; 5 min post-injection): 13.99 ± 4.60 %ID/g
- Biodistribution, Kidney ([3]; 5 min post-injection): 22.59 ± 5.74 %ID/g
- Biodistribution, Lungs ([3]; 5 min post-injection): 11.36 ± 1.89 %ID/g
- Biodistribution, Muscle ([3]; 5 min post-injection): 8.02 ± 1.34 %ID/g
- Biodistribution, Spleen ([3]; 5 min post-injection): 8.71 ± 1.50 %ID/g
- Biodistribution, Stomach ([3]; 5 min post-injection): 7.82 ± 0.86 %ID/g
- Biodistribution, Intestine, single mice ([3]; 15 min post-injection (time inferred from the means)): 27.17 %ID/g and 17.59 %ID/g and 22.86 %ID/g and 23.43 %ID/g
- Biodistribution, Blood ([3]; 15 min post-injection): 6.90 ± 1.13 %ID/g
- Biodistribution, Bone ([3]; 15 min post-injection): 1.59 ± 0.51 %ID/g
- Biodistribution, Brain ([3]; 15 min post-injection): 0.61 ± 0.25 %ID/g
- Biodistribution, Heart ([3]; 15 min post-injection): 5.71 ± 1.12 %ID/g
- Biodistribution, Intestine ([3]; 15 min post-injection): 20.10 ± 6.14 %ID/g
- Biodistribution, Kidney ([3]; 15 min post-injection): 12.72 ± 3.88 %ID/g
- Biodistribution, Liver ([3]; 15 min post-injection): 27.82 ± 6.35 %ID/g
- Biodistribution, Lungs ([3]; 15 min post-injection): 6.84 ± 1.43 %ID/g
- Biodistribution, Muscle ([3]; 15 min post-injection): 5.32 ± 1.02 %ID/g
- Biodistribution, Spleen ([3]; 15 min post-injection): 4.56 ± 1.09 %ID/g
- Biodistribution, Stomach ([3]; 15 min post-injection): 6.98 ± 1.36 %ID/g
- Biodistribution, Intestine, single mice ([3]; 30 min post-injection (time inferred from the means)): 31.76 %ID/g and 22.3 %ID/g and 32.3 %ID/g and 24.86 %ID/g and 56.33 %ID/g
- Biodistribution, Blood ([3]; 30 min post-injection): 4.35 ± 0.66 %ID/g
- Biodistribution, Bone ([3]; 30 min post-injection): 1.80 ± 0.60 %ID/g
- Biodistribution, Brain ([3]; 30 min post-injection): 0.35 ± 0.10 %ID/g
- Biodistribution, Heart ([3]; 30 min post-injection): 3.53 ± 0.33 %ID/g
- Biodistribution, Intestine ([3]; 30 min post-injection): 33.51 ± 12.05 %ID/g
- Biodistribution, Kidney ([3]; 30 min post-injection): 8.48 ± 1.34 %ID/g
- Biodistribution, Liver ([3]; 30 min post-injection): 15.34 ± 2.67 %ID/g
- Biodistribution, Lungs ([3]; 30 min post-injection): 5.15 ± 1.59 %ID/g
- Biodistribution, Spleen ([3]; 30 min post-injection): 2.95 ± 0.49 %ID/g
- Biodistribution, Stomach ([3]; 30 min post-injection): 5.50 ± 1.26 %ID/g
- Biodistribution, Intestine, single mice ([3]; 60 min post-injection (time inferred from the means)): 31 %ID/g and 24.55 %ID/g and 17.85 %ID/g and 13.74 %ID/g and 9.5 %ID/g
- Biodistribution, Blood ([3]; 60 min post-injection): 2.61 ± 0.18 %ID/g
- Biodistribution, Bone ([3]; 60 min post-injection): 1.91 ± 0.33 %ID/g
- Biodistribution, Brain ([3]; 60 min post-injection): 0.20 ± 0.04 %ID/g
- Biodistribution, Heart ([3]; 60 min post-injection): 1.91 ± 0.24 %ID/g
- Biodistribution, Intestine ([3]; 60 min post-injection): 19.33 ± 7.66 %ID/g
- Biodistribution, Kidney ([3]; 60 min post-injection): 5.07 ± 0.81 %ID/g
- Biodistribution, Liver ([3]; 60 min post-injection): 9.03 ± 3.62 %ID/g
- Biodistribution, Lungs ([3]; 60 min post-injection): 2.35 ± 1.07 %ID/g
- Biodistribution, Muscle ([3]; 60 min post-injection): 2.60 ± 1.20 %ID/g
- Biodistribution, Spleen ([3]; 60 min post-injection): 1.46 ± 0.24 %ID/g
- Biodistribution, Stomach ([3]; 60 min post-injection): 2.98 ± 1.22 %ID/g
- Biodistribution, Intestine, single mice ([3]; 90 min post-injection (time inferred from the means)): 6.25 %ID/g and 12.96 %ID/g and 10.39 %ID/g and 11.77 %ID/g and 4.91 %ID/g
- Biodistribution, Intestine, single mice ([3]; 120 min post-injection (time inferred from the means)): 6.06 %ID/g and 1.76 %ID/g and 4.52 %ID/g and 2.19 %ID/g and 9.23 %ID/g
- Biodistribution, Blood ([3]; 120 min post-injection): 1.29 ± 0.28 %ID/g
- Biodistribution, Bone ([3]; 120 min post-injection): 1.65 ± 0.81 %ID/g
- Biodistribution, Brain ([3]; 120 min post-injection): 0.08 ± 0.02 %ID/g
- Biodistribution, Heart ([3]; 120 min post-injection): 0.93 ± 0.20 %ID/g
- Biodistribution, Intestine ([3]; 120 min post-injection): 4.75 ± 2.73 %ID/g
- Biodistribution, Kidney ([3]; 120 min post-injection): 2.27 ± 0.93 %ID/g
- Biodistribution, Liver ([3]; 120 min post-injection): 5.39 ± 3.36 %ID/g
- Biodistribution, Lungs ([3]; 120 min post-injection): 1.87 ± 0.49 %ID/g
- Biodistribution, Muscle ([3]; 120 min post-injection): 1.51 ± 0.48 %ID/g
- Biodistribution, Spleen ([3]; 120 min post-injection): 0.85 ± 0.13 %ID/g
- Biodistribution, Stomach ([3]; 120 min post-injection): 1.63 ± 0.51 %ID/g
- Biodistribution, Intestine, single mice ([3]; 240 min post-injection (time inferred from the means)): 7.72 %ID/g and 2.48 %ID/g and 5.26 %ID/g and 2.09 %ID/g and 6.66 %ID/g
- Biodistribution, Blood ([3]; 240 min post-injection): 0.75 ± 0.19 %ID/g
- Biodistribution, Bone ([3]; 240 min post-injection): 1.33 ± 0.30 %ID/g
- Biodistribution, Brain ([3]; 240 min post-injection): 0.04 ± 0.02 %ID/g
- Biodistribution, Heart ([3]; 240 min post-injection): 0.39 ± 0.11 %ID/g
- Biodistribution, Intestine ([3]; 240 min post-injection): 4.84 ± 2.23 %ID/g
- Biodistribution, Kidney ([3]; 240 min post-injection): 0.82 ± 0.23 %ID/g
- Biodistribution, Liver ([3]; 240 min post-injection): 2.47 ± 1.47 %ID/g
- Biodistribution, Lungs ([3]; 240 min post-injection): 0.69 ± 0.19 %ID/g
- Biodistribution, Muscle ([3]; 240 min post-injection): 0.76 ± 0.23 %ID/g
- Biodistribution, Spleen ([3]; 240 min post-injection): 0.38 ± 0.13 %ID/g
- Biodistribution, Stomach ([3]; 240 min post-injection): 1.64 ± 0.69 %ID/g
- Activity in the bone ([3]; all time points): lower than 2 %ID/g
- Radioactivity in the brain ([3]; all time points): lower than 1 %ID/g
